Patent US11607414B2, “Small molecule inhibitors of EGFR and PI3K” (The Regents of the University of Michigan, priority 2014, dated 2023)

What was measured:
[1] = tested on: pAKT and pEGFR in HCT-116 cells; assay: Effect on pAKT and pEGFR in HCT-116 cells (Western blot); format: cell-based
Protocol: [50 mmol/L Tris-HCl (pH 8.0), 150 mmol/L NaCl, 1% NP40, 0.5% Na-deoxycholate, 0.1% SDS, containing protease (P8340, Sigma, St. Louis, Mo.) and phosphatase (P5726, Sigma) inhibitor cocktails]. The soluble protein concentration was determined by micro-bovine serum albumin assay (Pierce, Rockford, Ill.). Protein immunodetection was done by electrophoretic transfer of SDS-PAGE separated proteins to nitrocellulose, incubation with antibody, and chemiluminescent second step detection (PicoWest, Pierce). The antibodies included EGFR, phospho-EGFR (Y1068), phospho-p42/p44, phospho-Akt (473), phospho-Akt (308), total Akt, phosho-S6 (235/236), and total S6. All antibodies were obtained from Cell Signaling Technologies (Danvers, Mass.). […]
Cell extracts were prepared by detergent lysis [25 mmol/L Tris-HCl (pH 7.6), 150 mmol/L NaCl, 1% Nonidet P-40, 10% glycerol, 1 mM EDTA, 1 mmol/L dithiothreitol (DTT), and protease and phosphatase inhibitors, rocked for 30 minutes at 4° C., and centrifuged at 14,000 rpm for 20 min at 4° C. Protein concentration was determined by BioRad Protein Assays and lysates were subsequently subjected to SDS gel electrophoresis. […] After incubation with either anti-rabbit HRP or anti-mouse HRP linked secondary antibody (Jackson ImmunoResearch Laboratories, Inc.), proteins were detected using chemiluminescence (GE Healthcare).

PIK3CA = PIK3CA (Homo sapiens, UniProt P42336); assay: ADAPTA universal kinase assay, PIK3CA; format: biochemical
Sequence of PIK3CA (P42336 whole entry): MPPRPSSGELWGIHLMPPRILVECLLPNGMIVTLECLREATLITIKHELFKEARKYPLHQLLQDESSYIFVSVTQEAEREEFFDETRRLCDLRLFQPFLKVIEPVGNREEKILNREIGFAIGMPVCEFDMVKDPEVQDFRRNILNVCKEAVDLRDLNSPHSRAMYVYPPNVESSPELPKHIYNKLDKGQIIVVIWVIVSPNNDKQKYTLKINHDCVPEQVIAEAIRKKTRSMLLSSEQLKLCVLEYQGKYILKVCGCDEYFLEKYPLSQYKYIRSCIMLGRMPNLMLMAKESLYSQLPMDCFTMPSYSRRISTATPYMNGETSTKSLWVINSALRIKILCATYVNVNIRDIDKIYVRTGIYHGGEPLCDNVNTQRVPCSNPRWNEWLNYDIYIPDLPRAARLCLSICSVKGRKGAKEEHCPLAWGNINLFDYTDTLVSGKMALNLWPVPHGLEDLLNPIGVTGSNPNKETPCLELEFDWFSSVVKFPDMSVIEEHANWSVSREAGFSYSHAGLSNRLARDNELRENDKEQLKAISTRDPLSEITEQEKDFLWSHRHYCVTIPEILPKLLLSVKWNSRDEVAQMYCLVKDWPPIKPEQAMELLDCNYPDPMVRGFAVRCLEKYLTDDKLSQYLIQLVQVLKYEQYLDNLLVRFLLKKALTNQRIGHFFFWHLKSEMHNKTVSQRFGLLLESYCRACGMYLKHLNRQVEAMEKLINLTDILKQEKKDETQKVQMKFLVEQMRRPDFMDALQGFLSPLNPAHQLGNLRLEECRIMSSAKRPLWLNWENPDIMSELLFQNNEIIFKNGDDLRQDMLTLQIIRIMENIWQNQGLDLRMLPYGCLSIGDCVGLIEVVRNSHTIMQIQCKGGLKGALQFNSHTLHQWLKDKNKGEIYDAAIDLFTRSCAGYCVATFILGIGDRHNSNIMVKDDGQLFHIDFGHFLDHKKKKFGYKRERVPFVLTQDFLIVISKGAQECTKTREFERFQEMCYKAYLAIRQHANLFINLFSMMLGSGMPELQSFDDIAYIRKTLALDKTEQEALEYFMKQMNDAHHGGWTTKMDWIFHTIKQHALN
Sequence of PIK3CA (P27986 whole entry partner): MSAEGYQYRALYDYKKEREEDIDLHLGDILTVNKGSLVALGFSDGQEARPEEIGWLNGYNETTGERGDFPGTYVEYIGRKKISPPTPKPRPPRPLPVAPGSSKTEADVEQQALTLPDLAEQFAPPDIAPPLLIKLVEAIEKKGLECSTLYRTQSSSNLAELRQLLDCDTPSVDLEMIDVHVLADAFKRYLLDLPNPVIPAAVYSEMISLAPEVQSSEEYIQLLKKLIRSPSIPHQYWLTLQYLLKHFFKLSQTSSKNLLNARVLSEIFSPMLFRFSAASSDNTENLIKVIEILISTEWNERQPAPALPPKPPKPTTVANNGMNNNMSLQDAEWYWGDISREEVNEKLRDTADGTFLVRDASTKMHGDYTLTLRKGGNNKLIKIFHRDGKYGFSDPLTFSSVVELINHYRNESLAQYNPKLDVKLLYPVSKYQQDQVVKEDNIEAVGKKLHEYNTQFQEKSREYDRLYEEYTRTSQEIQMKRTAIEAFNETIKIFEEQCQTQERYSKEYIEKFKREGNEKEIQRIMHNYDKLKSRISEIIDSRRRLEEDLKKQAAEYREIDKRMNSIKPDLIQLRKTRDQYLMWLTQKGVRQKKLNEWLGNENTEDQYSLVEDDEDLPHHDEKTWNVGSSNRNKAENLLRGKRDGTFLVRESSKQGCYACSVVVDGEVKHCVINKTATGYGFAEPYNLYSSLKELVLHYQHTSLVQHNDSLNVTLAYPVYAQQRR
Protocol: Various compounds were tested for their ability to inhibit EGFR and PIK3CA. The assays determining inhibitions are given in Example 2 Assays-Z′-LYTE® and ADAPTA.
Enzyme: The ADAPTA universal kinase assay is a homogenous, fluorescent based immunoassay for the detection of ADP. In contrast to ATP depletion assays, the ADAPTA assay is extremely sensitive to ADP formation such that a majority of the signal change occurs in the first 10-20% conversion of ATP to ADP. This makes the ADAPTA universal kinase assay ideally suited for use with low activity kinases.
The principle of the ADAPTA universal kinase assay is outlined below. The assay itself can be divided into two phases: a kinase reaction phase, and an ADP detection phase. […]
ADP formation is determined by calculating the emission ratio from the assay well. The emission ratio is calculated by dividing the intensity of the tracer (acceptor) emission by the intensity of the Eu (donor) emission at 615 nm as shown in the equation below.
Adapta® Assay Conditions' • Test Compounds: The Test Compounds are screened in 1% DMSO (final) in the well. […] ATP Km apparent is previously determined using a radiometric assay except when no substrate is available in which case an Adapta® assay is conducted. • Detection Mix: The Detection Mix is prepared in TR-FRET Dilution Buffer. […] Read on fluorescence plate reader and analyze the data.

Solubility comparison = format: physicochemical
[2] = tested on: phosphorylation of AKT in HCT-116 tumors; assay: In vivo pharmacodynamics in subcutaneous HCT-116 tumors, pAKT; conditions: single oral dose 100 mg/kg, two hours post-dosing
Source text: (§1) However, additional synthesis of MOL-162 is needed to allow a full pharmacodynamic time course study to be carried out to determine the maximal degree of target inhibition of both targets after single and repeated daily dosing.

[3] = tested on: phosphorylation of EGFR in HCT-116 tumors; assay: In vivo pharmacodynamics in subcutaneous HCT-116 tumors, pEGFR; conditions: single oral dose 100 mg/kg, two hours post-dosing
Source text: as §1

CS(=O)(=O)Nc1cncc(-c2ccc3ncnc(Nc4cccc(Cl)c4)c3c2)c1 [MOL-162, N-(5-(4-((3-chlorophenyl)amino)quinazolin-6-yl)pyridin-3-yl)methanesulfonamide]
cellular modulation of EGFR and PI3K pathways [1]: cellular modulation of both pathways | inhibition of / potency against purified PIK3CA (in words) (PIK3CA): potent dual inhibition | solubility (comparison) (Solubility comparison): significantly more soluble than MOL-153 | phosphorylation of AKT in tumors [2]: not as strongly inhibited | phosphorylation of EGFR in tumors [3]: completely suppressed
